In PubChem BioAssay AID1996:
Converted amounts (≈) assume the structure as drawn.

conditions: buffer; pH 7.4; 200.0 µM

Row | SMILES | solubility kinetic
1 | Cn1cc(C(=O)C(=O)NC2CCCCC2)c2ccccc21 | 31.8 µg/mL (≈ 112 µM)
2 | CC(Cc1c[nH]c2ccccc12)C(=O)NCc1ccco1 (centres undefined) | > 42.4 µg/mL
3 | CCc1ccc(CNC(=O)C2CC(=O)N(C3CCCC3)C2)cc1 (centres undefined) | > 47.2 µg/mL
4 | Nc1nc(-c2ccccc2)c(-c2ccccc2)o1 | > 35.4 µg/mL
5 | CCOc1ccccc1Nc1nnc(SCC(=O)N(C)C2CCS(=O)(=O)C2)s1 (centres undefined) | > 66.4 µg/mL
6 | CN(C(=O)c1ccco1)c1nc(-c2ccc(F)cc2)cs1 | < 0.3 µg/mL
7 | O=[N+]([O-])c1ccc(SCc2ccncc2)nc1 | 30.5 µg/mL (≈ 123 µM)
8 | COC(=O)c1ccc(S(=O)(=O)N(CCO)Cc2ccccc2)n1C | 47.6 µg/mL (≈ 135 µM)
9 | CCOc1ccc(C(=O)n2cc(C(=O)OC)c3ccccc32)cc1OCC | 3.9 µg/mL (≈ 10.6 µM)
10 | C=C(C)C(=O)Nc1cccnc1Oc1ccc(F)cc1 | > 40.8 µg/mL
11 | O=C(CN1C(=O)S/C(=C\c2ccc(C(=O)O)cc2)C1=O)Nc1ccccc1 | 32.2 µg/mL (≈ 84.2 µM)
12 | Cc1ccc(OCC(=O)NCCCNC(=O)c2cnccn2)cc1C | 49.9 µg/mL (≈ 146 µM)
13 | CC(C)Cc1nnc(NC(=O)CCC(=O)N2CCCCC2)s1 | > 48.7 µg/mL
14 | Cc1ccc(CSc2ncnc3onc(C)c23)cc1 | < 0.2 µg/mL
15 | Cc1cccc2cc(C#N)c(N3CCOCC3)nc12 | 1.7 µg/mL (≈ 6.71 µM)
16 | O=C(NCCCCCCNC(=O)c1ccncc1)c1ccncc1 | > 49 µg/mL
17 | CC(=O)c1cccc(OCC(O)CNCC2CCCCC2)c1 (centres undefined) | > 45.8 µg/mL
18 | Cc1ccc(S(=O)(=O)N2CCCCC2)cc1NS(=O)(=O)c1ccccc1F | > 61.9 µg/mL
19 | Cc1ccc(NC(=O)c2ccccc2NC(=O)c2cccnc2)cc1 | < 0.2 µg/mL
20 | Cn1c(=O)c2c(nc3n2CC(CO)O3)n(C)c1=O (centres undefined) | > 37.8 µg/mL
21 | COc1ccccc1NC(=O)CN1C(=O)COc2ccc(C)cc21 | 16.2 µg/mL (≈ 49.6 µM)
22 | CCCCn1c(NC(=O)c2ccco2)c(C(=O)OCC)c2nc3ccccc3nc21 | 4.9 µg/mL (≈ 12.1 µM)
23 | CCCC(=O)Nc1cc(S(=O)(=O)N2CCOCC2)ccc1N1CCCCC1 | > 59.3 µg/mL
24 | O=c1c2[nH]c3ccc(Br)cc3c2ncn1Cc1ccncc1 | 0.4 µg/mL (≈ 1.13 µM)

Row | SMILES | solubility kinetic
25 | O=C(OCC(=O)N1CCCCCC1)c1ccc(F)cc1F | 44.4 µg/mL (≈ 149 µM)
26 | CC(=O)N1CCN(c2ccccc2NC(=O)COc2ccccc2C)CC1 | 49.7 µg/mL (≈ 135 µM)
27 | Cc1cc(NC(=O)CSc2ncccc2C(=O)O)no1 | > 44 µg/mL
28 | O=c1sc2ccccc2c(N2CCCC2)c1[N+](=O)[O-] | > 41.4 µg/mL
29 | Cc1ccc(N2CC(C(=O)NCc3ccco3)CC2=O)cc1Cl (centres undefined) | 30.8 µg/mL (≈ 92.6 µM)
30 | O=C1C(Cl)=C(N2CCCC2)C(=O)N1c1ccc(F)cc1 | 7.4 µg/mL (≈ 25.1 µM)
31 | COc1ccc(NC(=O)COc2ccc3c(c2)OCO3)cc1 | 39.5 µg/mL (≈ 131 µM)
32 | O=C(COC(=O)CC1CCCC1)Nc1ccc(OC(F)F)cc1 | 42.1 µg/mL (≈ 129 µM)
33 | O=C(C1CCN(S(=O)(=O)c2ccccc2)CC1)N1CCCCC1 | 50.4 µg/mL (≈ 150 µM)
34 | CCOc1ccccc1N(CC(=O)N1CCCC1)S(C)(=O)=O | > 49 µg/mL
35 | Cn1cccc1C(C#N)(CC#N)c1cccc(F)c1C#N (centres undefined) | 40.4 µg/mL (≈ 145 µM)
36 | C=CCN(c1ccccc1)S(=O)(=O)c1c(C)[nH]c(=O)[nH]c1=O | > 48.2 µg/mL
37 | CCOc1cc(/C=C2\NC(=O)NC2=O)ccc1OC(C)C(=O)O (centres undefined) | > 48 µg/mL
38 | CCOC(=O)CNc1ccc(OC(F)(F)F)cc1 | 7.2 µg/mL (≈ 27.4 µM)
39 | COCc1cc(=O)oc2cc(NS(=O)(=O)c3ccc(C)cc3)ccc12 | 1.3 µg/mL (≈ 3.62 µM)
40 | Cc1ccc(S(=O)(=O)Oc2ccccc2/C=C2/SC(=O)NC2=O)cc1 | 52.7 µg/mL (≈ 140 µM)
41 | CCOc1cc(C(=S)N2CCCC2)ccc1O | > 37.7 µg/mL
42 | COc1ccccc1CCNC(C)CCc1ccc(O)cc1 (centres undefined) | 33.2 µg/mL (≈ 111 µM)
43 | COCCCNc1nc(N)c([N+](=O)[O-])c(NCC2CCCO2)n1 (centres undefined) | > 49 µg/mL
44 | CCC(=O)c1ccc(OCC(=O)OCC(=O)NCC2CCCO2)cc1 (centres undefined) | 49.5 µg/mL (≈ 142 µM)
45 | CN1CCN(C(=O)/C=C/c2ccc(C#N)cc2)CC1 | > 38.3 µg/mL
46 | CCOC(=O)c1cc2c(ccn2C)n1CC(=O)N(CC)CC | > 45.8 µg/mL
47 | CC1CCCC(NC(=O)COC(=O)/C=C/c2ccc(F)cc2)C1C (centres undefined) | 3.3 µg/mL (≈ 9.9 µM)
48 | CC(NC(=S)NC(=O)c1ccccc1Br)c1ccccc1 (centres undefined) | 4.9 µg/mL (≈ 13.5 µM)

Row | SMILES | solubility kinetic
49 | CCOC(=O)c1c(N=CN(C)C)c2cc([N+](=O)[O-])cnc2n1C | 35 µg/mL (≈ 110 µM)
50 | Cc1nc2ccc(Cl)cc2c(=O)n1-c1ccccc1Cl | 10.4 µg/mL (≈ 34.1 µM)
51 | O=C(Nc1cccnc1)c1cccc(S(=O)(=O)N2CCCCC2)c1 | > 51.8 µg/mL
52 | Oc1cccc2ccc(/C=C/c3ccccc3Br)nc12 | < 0.7 µg/mL
53 | c1ccc(N2CCN(Cc3cnc(N4CCOCC4)s3)CC2)cc1 | > 51.7 µg/mL
54 | CN(C(=O)CSc1nnc(-c2ccc(Cl)cc2)n1C)C1CCS(=O)(=O)C1 (centres undefined) | > 62.2 µg/mL
55 | Cc1cc(=O)[nH]c(NCc2ccc(Cl)cc2)n1 | > 37.5 µg/mL
56 | Cc1[nH]c(SCC(=O)c2c(N)n(C)c(=O)n(C)c2=O)nc1Cc1ccccc1 | > 59.9 µg/mL
57 | CN1CCN(c2ccccc2/C=C2/C(=O)Nc3ccccc32)CC1 | > 47.9 µg/mL
58 | COC(=O)c1cccc(NC(=O)Nc2ccc(Cl)cc2Cl)c1 | < 0.4 µg/mL
59 | Cc1ccc2[nH]c(C)c(CCNC(=O)c3c(N)no[n+]3[O-])c2c1 | 5 µg/mL (≈ 15.9 µM)
60 | O=[N+]([O-])c1cccc(-c2nc(-c3ccccn3)no2)c1 | 6.4 µg/mL (≈ 23.9 µM)
61 | O=c1[nH]c(/C=C/c2ccc3c(c2)OCO3)c([N+](=O)[O-])c(=O)[nH]1 | 19.4 µg/mL (≈ 64 µM)
62 | CN(C)c1nc(N(C)C)nc(N2CC(=O)N(c3ccccc3)C2=N)n1 | 8.4 µg/mL (≈ 24.7 µM)
63 | Cc1ccc(S(=O)(=O)N2CCCCC2)cc1NC(=O)c1cc(F)c(F)c(F)c1F | 4.7 µg/mL (≈ 10.9 µM)
64 | CCOc1ncccc1C(=O)OCc1ccc([N+](=O)[O-])cc1 | 1.3 µg/mL (≈ 4.3 µM)
65 | COc1ccc(OC)c(NC(=S)N2CCCC2)c1 | > 40 µg/mL
66 | CSc1ccccc1NC(=O)CN(C)C(=O)COc1ncnc2ccccc12 | 45.1 µg/mL (≈ 114 µM)
67 | C=CCN1C(=O)C2(OCCCO2)c2c(C)ccc(C)c21 | 28.2 µg/mL (≈ 103 µM)
68 | Cc1noc(C)c1CNCc1ccccc1.O=C(O)C(=O)O | > 45.9 µg/mL
69 | O=C(O)c1ccc(/C=N/Nc2ncc(Cl)cc2Cl)cc1 | > 46.5 µg/mL
70 | COc1ccc(C(=O)NC(CCSC)C(=O)NC2CC2)cc1 (centres undefined) | > 48.4 µg/mL
71 | COC(=O)c1sc(NC(=O)COc2ccccc2C)nc1C | 0.6 µg/mL (≈ 1.87 µM)
72 | S=C(NCc1cccnc1)Nc1ccc2c(c1)OCO2 | > 43.1 µg/mL

Row | SMILES | solubility kinetic
73 | CCOC(=O)C1(Cc2ccccc2C)CCCN(C(=O)COC)C1 (centres undefined) | 35.6 µg/mL (≈ 107 µM)
74 | Nc1ncnc2c1ncn2C1OC(CO)C(O)C1O (centres undefined) | > 40.1 µg/mL
75 | O=C(NC1CCN(C(=O)c2cccc([N+](=O)[O-])c2)CC1)c1ccccc1 | > 53 µg/mL
76 | O=C(NCc1ccncc1)c1cncc(Br)c1 | > 43.8 µg/mL
77 | O=C(NNC(=O)C1CCC1)c1ccccc1 | > 32.7 µg/mL
78 | COC(=O)c1cccc2c1NC(=O)C2=O | > 30.8 µg/mL
79 | Cc1ccc(N2CC(C)Cn3c2nc2c3c(=O)[nH]c(=O)n2C)cc1 (centres undefined) | 8.8 µg/mL (≈ 27 µM)
80 | Cc1nc(C)n(CC(=O)c2ccc(Cl)cc2Cl)n1 | > 42.6 µg/mL
81 | C=CCN(CC=C)C(=S)Nc1cc(Cl)ccc1OC | > 44.5 µg/mL
82 | CC(=O)CN1C(=O)NC2(CCCc3ccccc32)C1=O (centres undefined) | > 40.8 µg/mL
83 | CNC(=O)Cc1csc2ccc(C)cc12 | 30.4 µg/mL (≈ 139 µM)
84 | COc1ccc(N(C=O)C(=S)SC)cc1 | 2.7 µg/mL (≈ 11.2 µM)
85 | N#Cc1c(-c2ccccc2)nc2n1CCS2 | 7.3 µg/mL (≈ 32.1 µM)
86 | CC(=O)c1ccc(OC(C)C(=O)NC2CCCCC2C)cc1 (centres undefined) | > 45.5 µg/mL
87 | CC(C)c1ccc(NC(=O)C2CC3CCC2C3)cc1 (centres undefined) | 2.1 µg/mL (≈ 8.16 µM)
88 | CCc1cc2c(SCc3ccc(C(=O)OC)o3)ncnc2s1 | 1.8 µg/mL (≈ 5.38 µM)
89 | Cc1ccc(C(=O)NCCCNc2ccccc2[N+](=O)[O-])cc1 | 3.4 µg/mL (≈ 10.9 µM)
90 | Cc1ccc(NC(=O)CCCC(=O)OC(C)C(=O)c2ccccc2)cc1 (centres undefined) | > 53 µg/mL
91 | CCN(CC)S(=O)(=O)N1CCC(C(=O)NCc2ccco2)CC1 | > 51.5 µg/mL
92 | CC(C)OC(=O)Cc1nc2sc(-c3ccccc3)cc2c(=O)[nH]1 | 2 µg/mL (≈ 6.09 µM)
93 | O=C1Nc2ccc(Br)cc2C1(O)c1ccc(F)cc1 (centres undefined) | > 48.3 µg/mL
94 | COC(=O)C1C(O)=C(C=Nc2cccc3ccccc23)C(=O)CC1(C)C (centres undefined) | 31.6 µg/mL (≈ 89.9 µM)
95 | O=c1ccn(CCc2c[nH]c3ccccc23)c2c1CCCC2 | > 43.9 µg/mL
96 | Cc1ccc(C(C)C)cc1S(=O)(=O)Nc1ccncc1 | 3.3 µg/mL (≈ 11.4 µM)

Row | SMILES | solubility kinetic
97 | O=C(COC(=O)c1cccc(O)c1)NC(=O)Cc1ccccc1 | > 47 µg/mL
98 | CCCCOc1ccc(C(=O)Oc2cccnc2)cc1 | 1.5 µg/mL (≈ 5.53 µM)
99 | COC(=O)CSc1nc(C)cc(N2CCOCC2)n1 | > 42.5 µg/mL
100 | COc1ccc(C(C)NC(=O)C2CCCC2)cc1OC (centres undefined) | > 41.6 µg/mL
101 | COc1ccc2[nH]cc(CCNC(=O)Cc3c(F)cccc3Cl)c2c1 | 3.9 µg/mL (≈ 10.8 µM)
102 | Clc1ccc(-c2csc(-c3ccncc3)n2)cc1 | 0.3 µg/mL (≈ 1.1 µM)
103 | CC(NC(=O)COC(=O)c1ccc(S(=O)(=O)N2CCOCC2)cc1)c1ccccc1 (centres undefined) | 13.2 µg/mL (≈ 30.5 µM)
104 | O=C(c1ccc(OC(F)(F)F)cc1)c1ncc[nH]1 | 37.2 µg/mL (≈ 145 µM)
105 | NC(=O)c1ccc(=O)n(Cc2ccc(Cl)cc2Cl)c1 | > 44.6 µg/mL
106 | CC(C)(C)c1ccc(C(=O)NC(=O)COC(=O)c2ccc(Br)o2)cc1 | 12.5 µg/mL (≈ 30.6 µM)
107 | Cc1ccc(CCNC(=O)C2CCC(=O)N2CCc2ccccc2)cc1 (centres undefined) | 47.1 µg/mL (≈ 134 µM)
108 | CCN1CCCC1CNc1ccc(S(C)(=O)=O)cc1[N+](=O)[O-] (centres undefined) | > 49.1 µg/mL
109 | O=C(CN1CCOCC1)Nc1ccc2c(c1)OC(F)(F)O2 | 41.2 µg/mL (≈ 137 µM)
110 | O=C(COC(=O)CNC(=O)c1ccccc1Cl)NC1CCCC1 | > 50.8 µg/mL
111 | COc1ccccc1C(=O)O/N=C(\c1ccccc1)c1ccncc1 | 34 µg/mL (≈ 102 µM)
112 | COc1ccccc1OCCNC(=O)CCS(=O)(=O)c1ccccc1 | > 54.5 µg/mL
113 | C=CCn1c(C)nnc1SCC(=O)NC1CCCCC1 | > 44.2 µg/mL
114 | CCc1nc(C)cc2c1sc1ccccc12.Cl | 1 µg/mL
115 | O=C(CN1CCCCCC1)Nc1c(Cl)cc(Cl)cc1Cl | 42.1 µg/mL (≈ 125 µM)
116 | CCOc1ccc(-c2nc(CCl)cs2)cc1OC.Cl | 27.2 µg/mL
117 | CCc1nnc(SC(C)C(=O)Nc2nccs2)n1C (centres undefined) | > 44.6 µg/mL
118 | S=C(Nc1ccccc1Cl)N1CCN(c2ccccn2)CC1 | 2.3 µg/mL (≈ 6.91 µM)
119 | N#Cc1c(C(F)(F)F)cc(-c2cccs2)nc1SCC(=O)O | 46.1 µg/mL (≈ 134 µM)
